Reference: US20070142392A1, “Uses of rifamycins” (ActivBiotics, Inc., priority 2005, published 2007)
≈ marks a conversion by molar mass, not a printed value.

Assays:
Format in all cases: cell-based
E. faecalis = test: MIC values, E. faecalis (Tables 1-4)
E. coli = test: MIC values, E. coli (Tables 1-4)
S. pneumo. = test: MIC values, S. pneumo. (Tables 1-4)
H. flu = tested on: H. flu
S. aureus = test: MIC values, S. aureus (Tables 1-4)

SMILES	MIC E. faecalis (E. faecalis) [µg/mL]	MIC E. coli (E. coli) [µg/mL]	MIC S. pneumo. (S. pneumo.) [µg/mL]	MIC H. flu (H. flu) [µg/mL]	MIC S. aureus (S. aureus) [µg/mL]
CO[C@H]1/C=C/O[C@@]2(C)Oc3c(C)c(O)c4c(=O)c(c5oc6cc(N7CCCC7)c(C7CCCCC7)cc6nc-5c4c3C2=O)NC(=O)/C(C)=C\C=C\[C@H](C)[C@H](O)[C@@H](C)[C@@H](O)[C@@H](C)[C@H](O)[C@@H]1C [Compound 118]	>8	>8	0.25 (≈ 0.28 µM)	8 (≈ 8.95 µM)	2 (≈ 2.24 µM)
CO[C@H]1/C=C/O[C@@]2(C)Oc3c(C)c(O)c4c(=O)c(c5oc6c(C)c(N7CCCC7)cc(C)c6nc-5c4c3C2=O)NC(=O)/C(C)=C\C=C\[C@H](C)[C@H](O)[C@@H](C)[C@@H](O)[C@@H](C)[C@H](O)[C@@H]1C [Compound 119]	2 (≈ 2.38 µM)	>8	0.5 (≈ 0.595 µM)	2 (≈ 2.38 µM)	0.5 (≈ 0.595 µM)
CO[C@H]1/C=C/O[C@@]2(C)Oc3c(C)c(O)c4c(=O)c(c5oc6cc(N7CCCC7)c(C)c(C)c6nc-5c4c3C2=O)NC(=O)/C(C)=C\C=C\[C@H](C)[C@H](O)[C@@H](C)[C@@H](O)[C@@H](C)[C@H](O)[C@@H]1C [Compound 120]	4 (≈ 4.76 µM)	>8	0.06 (≈ 0.0714 µM)	1 (≈ 1.19 µM)	0.5 (≈ 0.595 µM)
COc1c(N2CCCC2)cc(C)c2nc3c4c5c6c(C)c(O)c4c(=O)c(c-3oc12)NC(=O)/C(C)=C\C=C\[C@H](C)[C@H](O)[C@@H](C)[C@@H](O)[C@@H](C)[C@H](O)[C@H](C)[C@@H](OC)/C=C/O[C@@](C)(O6)C5=O [Compound 121]	2 (≈ 2.34 µM)	8 (≈ 9.35 µM)	0.03 (≈ 0.035 µM)	0.12 (≈ 0.14 µM)	0.06 (≈ 0.0701 µM)
CO[C@H]1/C=C/O[C@@]2(C)Oc3c(C)c(O)c4c(=O)c(c5oc6cc(N7CCCC7)c(F)cc6nc-5c4c3C2=O)NC(=O)/C(C)=C\C=C\[C@H](C)[C@H](O)[C@@H](C)[C@@H](O)[C@@H](C)[C@H](O)[C@@H]1C [Compound 123]	1 (≈ 1.2 µM)	8 (≈ 9.64 µM)	0.06 (≈ 0.0723 µM)	0.12 (≈ 0.145 µM)	0.03 (≈ 0.0361 µM)
CO[C@H]1/C=C/O[C@@]2(C)Oc3c(C)c(O)c4c(=O)c(c5oc6cc(N7CCCN(C)CC7)cc(O)c6nc-5c4c3C2=O)NC(=O)/C(C)=C\C=C\[C@H](C)[C@H](O)[C@@H](C)[C@@H](O)[C@@H](C)[C@H](O)[C@@H]1C [Compound 124]	0.03 (≈ 0.0344 µM)	4 (≈ 4.59 µM)	0.00012 (≈ 0.000138 µM)	0.25 (≈ 0.287 µM)	0.004 (≈ 0.00459 µM)
CO[C@H]1/C=C/O[C@@]2(C)Oc3c(C)c(O)c4c(=O)c(c5sc6cc(N7CCCN(C)CC7)ccc6nc-5c4c3C2=O)NC(=O)/C(C)=C\C=C\[C@H](C)[C@H](O)[C@@H](C)[C@@H](O)[C@@H](C)[C@H](O)[C@@H]1C [Compound 125]	0.25 (≈ 0.287 µM)	2 (≈ 2.3 µM)	0.00025 (≈ 0.000287 µM)	0.12 (≈ 0.138 µM)	0.002 (≈ 0.0023 µM)
CO[C@H]1/C=C/O[C@@]2(C)Oc3c(C)c(O)c4c(=O)c(c5oc6c(C)c(N7CCC7)cc(C)c6nc-5c4c3C2=O)NC(=O)/C(C)=C\C=C\[C@H](C)[C@H](O)[C@@H](C)[C@@H](O)[C@@H](C)[C@H](O)[C@@H]1C [Compound 126]	1 (≈ 1.21 µM)	8 (≈ 9.69 µM)	0.004 (≈ 0.00484 µM)	0.25 (≈ 0.303 µM)	0.03 (≈ 0.0363 µM)
CO[C@H]1/C=C/O[C@@]2(C)Oc3c(C)c(O)c4c(=O)c(c5oc6cc(N(C)CC(C)C)cc(O)c6nc-5c4c3C2=O)NC(=O)/C(C)=C\C=C\[C@H](C)[C@H](O)[C@@H](C)[C@@H](O)[C@@H](C)[C@H](O)[C@@H]1C [Compound 128]	0.5 (≈ 0.592 µM)	>8	0.002 (≈ 0.00237 µM)	0.5 (≈ 0.592 µM)	0.015 (≈ 0.0178 µM)
CO[C@H]1/C=C/O[C@@]2(C)Oc3c(C)c(O)c4c(=O)c(c5oc6cc(N(C)C7CCN(C)CC7)cc(O)c6nc-5c4c3C2=O)NC(=O)/C(C)=C\C=C\[C@H](C)[C@H](O)[C@@H](C)[C@@H](O)[C@@H](C)[C@H](O)[C@@H]1C [Compound 129]	0.5 (≈ 0.565 µM)	4 (≈ 4.52 µM)	0.00025 (≈ 0.000282 µM)	0.25 (≈ 0.282 µM)	0.004 (≈ 0.00452 µM)
CO[C@H]1/C=C/O[C@@]2(C)Oc3c(C)c(O)c4c(=O)c(c5oc6cc(N(C)CCC#N)ccc6nc-5c4c3C2=O)NC(=O)/C(C)=C\C=C\[C@H](C)[C@H](O)[C@@H](C)[C@@H](O)[C@@H](C)[C@H](O)[C@@H]1C [Compound 130]	0.5 (≈ 0.606 µM)	8 (≈ 9.7 µM)	0.008 (≈ 0.0097 µM)	0.12 (≈ 0.145 µM)	0.06 (≈ 0.0727 µM)
CO[C@H]1/C=C/O[C@@]2(C)Oc3c(C)c(O)c4c(=O)c(c5oc6cc(N7CCOCC7)cc(O)c6nc-5c4c3C2=O)NC(=O)/C(C)=C\C=C\[C@H](C)[C@H](O)[C@@H](C)[C@@H](O)[C@@H](C)[C@H](O)[C@@H]1C [Compound 131]	0.06 (≈ 0.0711 µM)	>8	0.00025 (≈ 0.000296 µM)	0.12 (≈ 0.142 µM)	0.004 (≈ 0.00474 µM)
CO[C@H]1/C=C/O[C@@]2(C)Oc3c(C)c(O)c4c(=O)c(c5sc6cc(N7CCOCC7)ccc6nc-5c4c3C2=O)NC(=O)/C(C)=C\C=C\[C@H](C)[C@H](O)[C@@H](C)[C@@H](O)[C@@H](C)[C@H](O)[C@@H]1C [Compound 132]	0.5 (≈ 0.592 µM)	4 (≈ 4.74 µM)	0.001 (≈ 0.00118 µM)	0.06 (≈ 0.0711 µM)	0.015 (≈ 0.0178 µM)
CO[C@H]1/C=C/O[C@@]2(C)Oc3c(C)c(O)c4c(=O)c(c5n(C)c6ccccc6nc-5c4c3C2=O)NC(=O)/C(C)=C\C=C\[C@H](C)[C@H](O)[C@@H](C)[C@@H](O)[C@@H](C)[C@H](O)[C@@H]1C [Compound 134]	2 (≈ 2.65 µM)	8 (≈ 10.6 µM)	0.5 (≈ 0.661 µM)	2 (≈ 2.65 µM)	0.5 (≈ 0.661 µM)
CO[C@H]1/C=C/O[C@@]2(C)Oc3c(C)c(O)c4c(=O)c(c5oc6cccc(O)c6nc-5c4c3C2=O)NC(=O)/C(C)=C\C=C\[C@H](C)[C@H](O)[C@@H](C)[C@@H](O)[C@@H](C)[C@H](O)[C@@H]1C [Compound 136]	0.12 (≈ 0.158 µM)	8 (≈ 10.5 µM)	0.002 (≈ 0.00264 µM)	0.25 (≈ 0.329 µM)	0.004 (≈ 0.00527 µM)
CO[C@H]1/C=C/O[C@@]2(C)Oc3c(C)c(O)c4c(=O)c(c5oc6ccc(F)cc6nc-5c4c3C2=O)NC(=O)/C(C)=C\C=C\[C@H](C)[C@H](O)[C@@H](C)[C@@H](O)[C@@H](C)[C@H](O)[C@@H]1C [Compound 138]	0.5 (≈ 0.657 µM)	>8	0.06 (≈ 0.0789 µM)	0.5 (≈ 0.657 µM)	0.03 (≈ 0.0394 µM)
CO[C@H]1/C=C/O[C@@]2(C)Oc3c(C)c(O)c4c(=O)c(c5oc6cc(F)ccc6nc-5c4c3C2=O)NC(=O)/C(C)=C\C=C\[C@H](C)[C@H](O)[C@@H](C)[C@@H](O)[C@@H](C)[C@H](O)[C@@H]1C [Compound 139]	0.5 (≈ 0.657 µM)	>8	0.03 (≈ 0.0394 µM)	0.5 (≈ 0.657 µM)	0.03 (≈ 0.0394 µM)
COC1C=COC2(C)Oc3c(C)c(O)c4c(=O)c(c5oc6cc(N7CC8CCCNC8C7)cc(O)c6nc-5c4c3C2=O)NC(=O)C(C)=CC=CC(C)C(O)C(C)C(O)C(C)C(OC(C)=O)C1C (stereo not shown) [Compound 141]	0.5 (≈ 0.541 µM)	8 (≈ 8.65 µM)	0.00025 (≈ 0.00027 µM)	2 (≈ 2.16 µM)	0.015 (≈ 0.0162 µM)
COC1C=COC2(C)Oc3c(C)c(O)c4c(=O)c(c5oc6cc(N7CC8CCCNC8C7)cc(O)c6nc-5c4c3C2=O)NC(=O)C(C)=CC=CC(C)C(O)C(C)C(O)C(C)C(O)C1C (stereo not shown) [Compound 142]	4 (≈ 4.53 µM)	>8	0.004 (≈ 0.00453 µM)	4 (≈ 4.53 µM)	0.12 (≈ 0.136 µM)
COC1C=COC2(C)Oc3c(C)c(O)c4c(=O)c(c5oc6cc(N7CC8CCCNC8C7)cc(O)c6nc-5c4c3C2=O)NC(=O)C(C)=CC=CC(C)C(O)C(C)C(O)C(C)C(OC(C)=O)C1C (stereo not shown) [Compound 143]	0.12 (≈ 0.13 µM)	8 (≈ 8.65 µM)	0.00025 (≈ 0.00027 µM)	0.25 (≈ 0.27 µM)	0.004 (≈ 0.00432 µM)
COC1C=COC2(C)Oc3c(C)c(O)c4c(=O)c(c5oc6cc(N7CC8CCCNC8C7)cc(O)c6nc-5c4c3C2=O)NC(=O)C(C)=CC=CC(C)C(O)C(C)C(O)C(C)C(O)C1C (stereo not shown) [Compound 144]	0.25 (≈ 0.283 µM)	>8	0.002 (≈ 0.00226 µM)	1 (≈ 1.13 µM)	0.03 (≈ 0.034 µM)
CO[C@H]1/C=C/O[C@@]2(C)Oc3c(C)c(O)c4c(=O)c(c5oc6cc(N7CC8CCC(C7)N8)cc(O)c6nc-5c4c3C2=O)NC(=O)/C(C)=C\C=C\[C@H](C)[C@H](O)[C@@H](C)[C@@H](O)[C@@H](C)[C@H](OC(C)=O)[C@@H]1C [Compound 145]	1 (≈ 1.1 µM)	>8	0.00012 (≈ 0.000132 µM)	2 (≈ 2.2 µM)	0.008 (≈ 0.00878 µM)
CO[C@H]1/C=C/O[C@@]2(C)Oc3c(C)c(O)c4c(=O)c(c5oc6cc(N7CC8CCC(C7)N8)cc(O)c6nc-5c4c3C2=O)NC(=O)/C(C)=C\C=C\[C@H](C)[C@H](O)[C@@H](C)[C@@H](O)[C@@H](C)[C@H](O)[C@@H]1C [Compound 146]	0.12 (≈ 0.138 µM)	4 (≈ 4.6 µM)	0.001 (≈ 0.00115 µM)	0.25 (≈ 0.288 µM)	0.015 (≈ 0.0173 µM)
